Residues, ends and D or L forms follow the SMILES beside them.
The compounds below were run on Vero-E6 cells (assay: cells). Settings: not given.
Type: cell-based

SMILES	PLD propensity
CC(COc1ccccc1Cc1ccccc1)N1CCCCC1 (stereo not drawn) [benproperine, reference compound]	high PLD propensity

Same assay, conditions: Chlorocebus sabaeus, Vero C1008, 24 h, read-out: PL_Result

SMILES	activation at 10 µM
Cc1nc(-c2cn3c(n2)-c2ccc(-c4cnn(C(C)(C)C(N)=O)c4)cc2OCC3)n(C(C)C)n1 [SPE_K44844162]	4.98%
Cn1nc(-c2ccc(C(F)(F)F)cc2)nc2c(=O)n(C)c(=O)nc1-2 [SPE_K01129913]	-6.15%
CCN(CCO)CCCOc1ccc2c(Nc3cc(CC(=O)Nc4cccc(F)c4)n[nH]3)ncnc2c1 [SPE_K63923597]	-6.57%
CCCCC1C(=O)N(c2ccccc2)N(c2ccc(O)cc2)C1=O (stereo not drawn) [SPE_A33749298]	2.66%
O=C(Nc1ccc(N2CCC(C(=O)N3CCOCC3)CC2)cc1)c1cnc(Oc2ccccc2)nc1 [SPE_K57708067]	-4.61%
O=C1N[C@@H]2[C@@H](O)[C@@H](O)[C@H](O)[C@@H](CO)N2C1=O [SPE_K02898090]	7%
O=[N+]([O-])O[C@@H]1CO[C@H]2[C@@H]1OC[C@@H]2O [SPE_K82225283]	-18.1%
COc1ccc(-c2cc(=O)c3c(OC)c(OC)c(OC)c(OC)c3o2)cc1OC [SPE_K06753942]	17.9%
NC1CCN(c2c(F)cc3c(=O)c(C(=O)O)cn(C4CC4)c3c2Cl)C1 (stereo not drawn) [SPE_A93964801]	-2.8%
Nc1nc(Nc2ccc(S(N)(=O)=O)cc2)nn1C(=O)c1c(F)cccc1F [SPE_K11636097]	-9.77%
NCc1cc(O)no1 [SPE_K60441002]	-7.28%
Cc1[nH]c2ccc(F)cc2c1-c1nc2c3cccnc3c3ncccc3c2[nH]1 [SPE_K68003372]	-0.56%
CC(C)[N+](C)(CCOC(=O)C1c2ccccc2Oc2ccccc21)C(C)C [SPE_K90885812]	-7.34%
O=C1OC(c2ccc(O)cc2)(c2ccc(O)cc2)c2ccccc21 [SPE_K19227686]	1.99%
CC(CN(C)C)C(C)(O)Cc1ccc(Cl)cc1 (stereo not drawn) [SPE_A43809092]	-8.69%
CCCCCCCCCCCCCCCCCC(=O)OCC(O)[C@H]1OC[C@H](O)[C@H]1O (stereo partly drawn) [SPE_A70197423]	-4.54%
O=C(O)Cc1ccc(CCNS(=O)(=O)c2ccc(Cl)cc2)cc1 [SPE_K26813177]	-0.423%
COc1cc(O)c(C(=O)c2ccccc2)cc1S(=O)(=O)O [SPE_K38602774]	-11.2%
COc1nccc(-c2c(-c3ccc(F)cc3)ncn2C2CCNCC2)n1 [SPE_K19412355]	14.6%
NC(=O)C[C@H](N)C(=O)O [SPE_K06665116]	-6.33%
COc1ccccc1C(=O)Nc1cccc(NC(=O)c2cccc(C)c2)c1 [SPE_K02160913]	-4.26%

SMILES	activation at 10 µM
COc1cc(Oc2ccnc3cc(OC)c(OC)cc23)ccc1NC(=O)NC(C)c1nccs1 (stereo not drawn) [SPE_A88787317]	-0.267%
OCc1cc([C@@H](O)CNCCCCCCOCCOCc2c(Cl)cccc2Cl)ccc1O [SPE_M36487418]	28.8%
CCCCCC(=O)O[C@]1(C(C)=O)CCC2C3CCC4=CC(=O)CC[C@]4(C)C3CC[C@@]21C (stereo partly drawn) [SPE_A29731977]	-5.02%
NS(=O)(=O)c1ccc(-n2nc(C(F)(F)F)cc2-c2ccc(Cl)cc2)cc1 [SPE_K76365178]	-2.4%
CC[C@H](CO)Nc1nc(NCc2ccccc2)c2ncn(C(C)C)c2n1 [SPE_K07691486]	5.8%
Clc1ccc(Cn2c(CN3CCCC3)nc3ccccc32)cc1 [SPE_K04704168]	18%
Cc1cc(N2CCCCC2)nc2ccccc12 [SPE_K80021413]	-1.3%
CN1C(CSCC(F)(F)F)Nc2cc(Cl)c(S(N)(=O)=O)cc2S1(=O)=O (stereo not drawn) [SPE_A15739803]	0.385%
CCC1NC(=O)c2cc(S(N)(=O)=O)c(Cl)cc2N1 (stereo not drawn) [SPE_A59303141]	-4.81%
NCC1CC(=O)N(Cc2ccccc2)C1 (stereo not drawn) [SPE_A51355958]	2%
Cc1cc2c(cc1C(F)(F)F)N(C(=O)Nc1ccc(Oc3cccnc3C)nc1)CC2 [SPE_K99968849]	3.28%
Cc1nnc(C(C)C)n1C1CC2CCC(C1)N2CC[C@H](NC(=O)C1CCC(F)(F)CC1)c1ccccc1 (stereo partly drawn) [SPE_A04352665]	-15.3%
CC(C)CCCC(C)[C@H]1CCC2C3CC=C4C[C@@H](O)CC[C@]4(C)C3CC[C@@]21C (stereo partly drawn) [SPE_A42883684]	-4.75%
CCN(CC)Cc1ccc2cc(COC(=O)Nc3ccc(C(=O)NO)cc3)ccc2c1 [SPE_K13810148]	-13.8%
O=C(Oc1cc(S(=O)(=O)c2ccccc2)ccc1[N+](=O)[O-])c1ccc(Cl)cc1 [SPE_K37933329]	-5.26%
O=C(NCCN1CCC2(CC1)C(=O)NCN2c1cccc(F)c1)c1ccc2ccccc2c1 [SPE_K93317811]	113%
CC(C)(S)C(=O)N[C@@H](CS)C(=O)O [SPE_K24697665]	-4.72%
CN(C)C/C=C/C(=O)Nc1ccc(C(=O)Nc2cccc(Nc3ncc(Cl)c(-c4c[nH]c5ccccc45)n3)c2)cc1 [SPE_K66401437]	6.67%
COc1cccc([C@H](O)C2CCN(CCc3ccc(F)cc3)CC2)c1OC [SPE_K23647661]	-9.45%
Cc1nc(Nc2ncc(C(=O)Nc3c(C)cccc3Cl)s2)cc(N2CCN(CCO)CC2)n1 [SPE_K49328571]	0.377%
Cc1c(C2CCN(CCc3ccccc3)CC2)noc1-c1ccc(Cl)cc1 [SPE_K13211965]	49%

SMILES	activation at 10 µM
CC(=O)OCC(=O)[C@@]1(O)CCC2C3CCC4=CC(=O)CC[C@]4(C)C3[C@@H](O)C[C@@]21C (stereo partly drawn) [SPE_A65767837]	-13.7%
O=C(NCC(=O)N1CCCC1)Nc1ccc2cnccc2c1 [SPE_K86718786]	-0.0855%
Cn1cccc1/C=C1\C(=O)NC(=O)c2ccccc21 [SPE_K61665160]	-5.42%
COCC(=O)O[C@]1(CCN(C)CCCc2nc3ccccc3[nH]2)CCc2cc(F)ccc2[C@@H]1C(C)C [SPE_K09549677]	97.4%
O=S(=O)(c1cccc2cnccc12)N1CCNCC1 [SPE_K72462751]	-15.9%
Cc1c(N)cccc1Cn1ccc(OCCc2cccs2)cc1=O [SPE_K48888725]	1.09%
OC(c1ccccc1)C1CCN(CCc2ccccc2)CC1 (stereo not drawn) [SPE_A62057054]	3.01%
O=C(NCc1ccc(F)cc1)N1CCN2C(=O)OC(c3ccccc3)(c3ccccc3)C2C1 (stereo not drawn) [SPE_A63344375]	-2.64%
O=S(=O)(NCCCCCCc1ccccc1)c1cccc2c(Cl)cccc12 [SPE_K25875056]	-10.4%
CC(C)[C@@H](N)C(=O)O [SPE_K59424860]	0.189%
CC(C)[C@H](CO)Nc1nc(Nc2cccc(Cl)c2)c2ncn(C(C)C)c2n1 [SPE_K50836978]	1.32%
Nc1ncnc2c1ncn2C1CCCO1 (stereo not drawn) [SPE_A56987319]	0.343%
Cc1cc(NCCO)nc(-c2ccc(Br)cc2)n1 [SPE_K07656463]	-1.9%
CNC1CCCN(c2c(F)cc3c(=O)c(C(=O)O)cn(C4CC4)c3c2OC)C1 (stereo not drawn) [SPE_A47790386]	3.04%
CN1CCN(c2c(F)cc3c(=O)c(C(=O)O)cn4c3c2SCC4)CC1 [SPE_K62374253]	-11.9%
CC(C)c1ccc(CC(=O)N2CCC[C@@H](c3cccc(OC(C)(C)C(=O)O)c3)C2)cc1 [SPE_K96843359]	-10.8%
O=C(C1CCCCC1)N1CC(=O)N2CCc3ccccc3C2C1 (stereo not drawn) [SPE_A21858158]	-0.34%
O=C(O)CCn1c2c(c3ccccc31)C[C@H](NS(=O)(=O)c1ccc(F)cc1)CC2 [SPE_K08586861]	-12%
NC1(Cc2ccc(Cl)cc2)CCN(c2ncnc3[nH]ccc23)CC1 [SPE_K76406695]	-4.38%
CCCCC/C=C\C/C=C\CCCCCCCC(=O)NCCCC(=O)O [SPE_K46254452]	0.426%
CC1(C)O[C@@H]2CC3C4C[C@H](F)C5=CC(=O)C=CC5(C)C4C(O)CC3(C)[C@]2(C(=O)CO)O1 (stereo partly drawn) [SPE_A65449987]	6.74%

SMILES	activation at 10 µM
CNC(=O)[C@H](Cc1ccccc1)NC(=O)[C@H](CC(C)C)[C@H](CSc1cccs1)C(=O)NO [SPE_K82818427]	11.4%
CCCN(CCC)S(=O)(=O)c1ccc(C(=O)O)cc1 [SPE_K95237249]	0.643%
C[N+]1(C)CCc2cc3c(cc2[C@H]1[C@@H]1OC(=O)c2c1ccc1c2OCO1)OCO3 [SPE_A57798559]	-11.7%
O=C(/C=C/c1ccccc1)NCCO [SPE_K76021681]	2.18%
CS(=O)(=O)c1ccc(-c2cnc(NCc3ccco3)n3cnnc23)cc1 [SPE_K19002914]	5.68%
CN(C)c1nc(N)c(C(=O)Nc2cccnc2)nc1Cl [SPE_K68633617]	-11.7%
COc1cc2c(cc1C(F)(F)F)N(C(=O)Nc1cc(F)cc(-c3cccnc3)c1)CC2 [SPE_K15424032]	13.1%
O=C(O)c1cc(-c2ccc(F)cc2F)ccc1O [SPE_K22031190]	-7.97%
CC#CC(=O)N1CCC[C@H]1c1nc(-c2ccc(C(=O)Nc3ccccn3)cc2)c2c(N)nccn12 [SPE_K64034691]	-12.3%
COc1cnc(NS(=O)(=O)c2ccc(N)cc2)nc1 [SPE_K87492696]	-0.356%
CC(C)CC(NC(=O)C1CCCN1)C(=O)NCC(N)=O (stereo not drawn) [SPE_A09911125] (H-Pro-Leu-Gly-NH2; configuration not given here)	-6.88%
O=C(Nc1cccc(Cl)c1)c1ccccn1 [SPE_K66527818]	-8.01%
Cc1[nH]cnc1CN1CCc2c(c3ccccc3n2C)C1=O [SPE_K46742498]	6.83%
O=C(NC[C@H](O)CO)c1ccncc1Nc1ccc(I)cc1F [SPE_K89014967]	-12.6%
CC(CN)CC(=O)O (stereo not drawn) [SPE_A62890442]	-10.6%
CCOC(=O)n1ccn(C)c1=S [SPE_K87156652]	-10.8%
CC(C)Oc1ccc(-c2cnc3c(-c4ccnc5ccccc45)cnn3c2)cc1 [SPE_K39381259]	-4.31%
CC(C)c1cc(C(=O)N2Cc3ccc(CN4CCN(C)CC4)cc3C2)c(O)cc1O [SPE_K58435339]	0.714%
COc1ccc(C(=O)c2ccccc2O)c(O)c1 [SPE_K22193694]	-2.64%
NCCc1ccc(O)c(O)c1 [SPE_K43887077]	-4.01%

From paper PMC13083723 (Patterns, 2026)
